# Test results reported in ChEMBL document CHEMBL4813981, “Synthesis and in vitro antibacterial activity of new aminothiazole-oximepiperidone cephalosporins” (2021).
# Columns and labels:
# Type in all cases: functional
# Klebsiella aerogenes [1] = experiment: Antibacterial activity against Enterobacter aerogenes 15-7 assessed as reduction in bacterial growth
# Klebsiella pneumoniae [2] = experiment: Antibacterial activity against Carbapenem- resistant Klebsiella pneumoniae KR 15-5 assessed as reduction in bacterial growth
# Escherichia coli [3] = experiment: Antibacterial activity against ESBLs positive Carbapenem-sensitive Escherichia coli 17-15 assessed as reduction in bacterial growth
# Klebsiella pneumoniae [4] = experiment: Antibacterial activity against Carbapenem- sensitive Klebsiella pneumoniae 17-3 overexpressing extended spectrum beta-lactamases assessed as reduction in bacterial growth
# Acinetobacter baumannii [5] = experiment: Antibacterial activity against Carbapenem- resistant Acinetobacter baumannii 17-9 assessed as reduction in bacterial growth
# Escherichia coli [6] = experiment: Antibacterial activity against ESBLs positive Carbapenem-sensitive Escherichia coli 17-22 assessed as reduction in bacterial growth
# Escherichia coli [7] = experiment: Antibacterial activity against Escherichia coli ATCC 25922 assessed as reduction in bacterial growth
# Klebsiella pneumoniae [8] = experiment: Antibacterial activity against Carbapenem- resistant Klebsiella pneumoniae KR 15-7 assessed as reduction in bacterial growth
# Escherichia coli [9] = experiment: Antibacterial activity against ESBLs positive Carbapenem-sensitive Escherichia coli 17-10 assessed as reduction in bacterial growth
# Klebsiella pneumoniae [10] = experiment: Antibacterial activity against Carbapenem- sensitive Klebsiella pneumoniae 17-4 overexpressing extended spectrum beta-lactamases assessed as reduction in bacterial growth
# Acinetobacter baumannii [11] = experiment: Antibacterial activity against Carbapenem- resistant Acinetobacter baumannii 17-6 assessed as reduction in bacterial growth
# Enterobacter cloacae [12] = experiment: Antibacterial activity against Enterobacter cloacae 17-8 assessed as reduction in bacterial growth
# Enterobacter cloacae [13] = experiment: Antibacterial activity against Enterobacter cloacae 17-7 assessed as reduction in bacterial growth
# Klebsiella pneumoniae [14] = experiment: Antibacterial activity against ESBLs negative Carbapenem-sensitive Klebsiella pneumoniae 17-17 assessed as reduction in bacterial growth
# Klebsiella pneumoniae [15] = experiment: Antibacterial activity against Carbapenem- sensitive Klebsiella pneumoniae 17-1 overexpressing extended spectrum beta-lactamases assessed as reduction in bacterial growth
# Klebsiella pneumoniae [16] = experiment: Antibacterial activity against Carbapenem- resistant Klebsiella pneumoniae KR 15-11 assessed as reduction in bacterial growth
# Escherichia coli [17] = experiment: Antibacterial activity against ESBLs negative Carbapenem-sensitive Escherichia coli 17-1 assessed as reduction in bacterial growth
# Escherichia coli [18] = experiment: Antibacterial activity against ESBLs positive Carbapenem-sensitive Escherichia coli 17-11 assessed as reduction in bacterial growth
# Klebsiella aerogenes [19] = experiment: Antibacterial activity against Enterobacter aerogenes 17-1 assessed as reduction in bacterial growth
# Klebsiella pneumoniae [20] = experiment: Antibacterial activity against Carbapenem- resistant Klebsiella pneumoniae KR 15-10 assessed as reduction in bacterial growth
# Acinetobacter baumannii [21] = experiment: Antibacterial activity against Carbapenem- resistant Acinetobacter baumannii 17-11 assessed as reduction in bacterial growth
# Klebsiella pneumoniae [22] = experiment: Antibacterial activity against Carbapenem- sensitive Klebsiella pneumoniae 17-2 overexpressing extended spectrum beta-lactamases assessed as reduction in bacterial growth
# Acinetobacter baumannii [23] = experiment: Antibacterial activity against Carbapenem- resistant Acinetobacter baumannii 17-5 assessed as reduction in bacterial growth
# Klebsiella aerogenes [24] = experiment: Antibacterial activity against Enterobacter aerogenes 15-5 assessed as reduction in bacterial growth
# Klebsiella pneumoniae [25] = experiment: Antibacterial activity against ESBLs negative Carbapenem-sensitive Klebsiella pneumonia 15-2 assessed as reduction in bacterial growth
# Klebsiella pneumoniae [26] = experiment: Antibacterial activity against Carbapenem- resistant Klebsiella pneumoniae KR 15-13 assessed as reduction in bacterial growth
# Pseudomonas aeruginosa [27] = experiment: Antibacterial activity against Carbapenem- sensitive Pseudomonas aeruginosa 17-26 assessed as reduction in bacterial growth
# Enterobacter cloacae [28] = experiment: Antibacterial activity against Enterobacter cloacae 17-3 assessed as reduction in bacterial growth
# Escherichia coli [29] = experiment: Antibacterial activity against ESBLs positive Carbapenem-sensitive Escherichia coli 17-6 assessed as reduction in bacterial growth
# Pseudomonas aeruginosa [30] = experiment: Antibacterial activity against Carbapenem- sensitive Pseudomonas aeruginosa 17-29 assessed as reduction in bacterial growth
# Klebsiella pneumoniae [31] = experiment: Antibacterial activity against ESBLs negative Carbapenem-sensitive Klebsiella pneumoniae 17-16 assessed as reduction in bacterial growth
# Pseudomonas aeruginosa [32] = experiment: Antibacterial activity against Carbapenem- sensitive Pseudomonas aeruginosa 17-24 assessed as reduction in bacterial growth
# Acinetobacter baumannii [33] = experiment: Antibacterial activity against Carbapenem- resistant Acinetobacter baumannii 17-13 assessed as reduction in bacterial growth
# Escherichia coli [34] = experiment: Antibacterial activity against ESBLs positive Carbapenem-sensitive Escherichia coli 17-5 assessed as reduction in bacterial growth
# Enterobacter cloacae [35] = experiment: Antibacterial activity against Enterobacter cloacae 17-5 assessed as reduction in bacterial growth
# Klebsiella pneumoniae [36] = experiment: Antibacterial activity against Carbapenem- resistant Klebsiella pneumoniae KR 15-12 assessed as reduction in bacterial growth
# Escherichia coli [37] = experiment: Antibacterial activity against ESBLs positive Carbapenem-sensitive Escherichia coli 17-3 assessed as reduction in bacterial growth
# Klebsiella pneumoniae [38] = experiment: Antibacterial activity against Carbapenem- sensitive Klebsiella pneumoniae 17-15 overexpressing extended spectrum beta-lactamases assessed as reduction in bacterial growth
# Klebsiella aerogenes [39] = experiment: Antibacterial activity against Enterobacter aerogenes 17-2 assessed as reduction in bacterial growth
# Enterobacter cloacae [40] = experiment: Antibacterial activity against Enterobacter cloacae 17-9 assessed as reduction in bacterial growth
# Klebsiella pneumoniae [41] = experiment: Antibacterial activity against Carbapenem- sensitive Klebsiella pneumoniae 17-13 overexpressing extended spectrum beta-lactamases assessed as reduction in bacterial growth
# Klebsiella pneumoniae [42] = experiment: Antibacterial activity against ESBLs negative Carbapenem-sensitive Klebsiella pneumoniae 17-18 assessed as reduction in bacterial growth
# Pseudomonas aeruginosa [43] = experiment: Antibacterial activity against Carbapenem- sensitive Pseudomonas aeruginosa 17-10 assessed as reduction in bacterial growth
# Klebsiella pneumoniae [44] = experiment: Antibacterial activity against Carbapenem- sensitive Klebsiella pneumoniae 17-5 overexpressing extended spectrum beta-lactamases assessed as reduction in bacterial growth
# Klebsiella pneumoniae [45] = experiment: Antibacterial activity against Carbapenem- resistant Klebsiella pneumoniae KR 15-6 assessed as reduction in bacterial growth
# Klebsiella pneumoniae [46] = experiment: Antibacterial activity against Carbapenem- resistant Klebsiella pneumoniae KR 15-8 assessed as reduction in bacterial growth
# Acinetobacter baumannii [47] = experiment: Antibacterial activity against Carbapenem- resistant Acinetobacter baumannii 17-3 assessed as reduction in bacterial growth
# Escherichia coli [48] = experiment: Antibacterial activity against ESBLs positive Carbapenem-sensitive Escherichia coli 17-12 assessed as reduction in bacterial growth
# Pseudomonas aeruginosa [49] = experiment: Antibacterial activity against Carbapenem- sensitive Pseudomonas aeruginosa 17-22 assessed as reduction in bacterial growth
# Klebsiella pneumoniae [50] = experiment: Antibacterial activity against Carbapenem- sensitive Klebsiella pneumoniae 17-11 overexpressing extended spectrum beta-lactamases assessed as reduction in bacterial growth
# Klebsiella aerogenes [51] = experiment: Antibacterial activity against Enterobacter aerogenes 17-4 assessed as reduction in bacterial growth
# Klebsiella pneumoniae [52] = experiment: Antibacterial activity against Carbapenem- resistant Klebsiella pneumoniae KR 15-4 assessed as reduction in bacterial growth
# Pseudomonas aeruginosa [53] = experiment: Antibacterial activity against Carbapenem- resistant Pseudomonas aeruginosa 17-8 assessed as reduction in bacterial growth
# Enterobacter cloacae [54] = experiment: Antibacterial activity against Enterobacter cloacae 17-4 assessed as reduction in bacterial growth
smiles,measurement,setting,value
CC(C)(O/N=C(\C(=O)N[C@@H]1C(=O)N2C(C(=O)[O-])=C(C[n+]3ccccc3)CS[C@H]12)c1csc(N)n1)C(=O)O [CEFTAZIDIME],MIC,Klebsiella aerogenes [1],16 µg/mL
same,MIC,Klebsiella pneumoniae [2],> 64 µg/mL
same,MIC,Escherichia coli [3],64 µg/mL
same,MIC,Klebsiella pneumoniae [4],> 64 µg/mL
same,MIC,Acinetobacter baumannii [5],> 64 µg/mL
same,MIC,Escherichia coli [6],> 64 µg/mL
same,MIC,Escherichia coli [7],0.06 µg/mL
same,MIC,Klebsiella pneumoniae [8],> 64 µg/mL
same,MIC,Escherichia coli [9],4 µg/mL
same,MIC,Klebsiella pneumoniae [10],> 64 µg/mL
same,MIC,Acinetobacter baumannii [11],> 64 µg/mL
same,MIC,Enterobacter cloacae [12],0.125 µg/mL
same,MIC,Enterobacter cloacae [13],> 64 µg/mL
same,MIC,Klebsiella pneumoniae [14],0.125 µg/mL
same,MIC,Klebsiella pneumoniae [15],64 µg/mL
same,MIC,Klebsiella pneumoniae [16],> 64 µg/mL
same,MIC,Escherichia coli [17],64 µg/mL
same,MIC,Escherichia coli [18],32 µg/mL
same,MIC,Klebsiella aerogenes [19],8 µg/mL
same,MIC,Klebsiella pneumoniae [20],> 64 µg/mL
same,MIC,Acinetobacter baumannii [21],32 µg/mL
same,MIC,Klebsiella pneumoniae [22],2 µg/mL
same,MIC,Acinetobacter baumannii [23],> 64 µg/mL
same,MIC,Klebsiella aerogenes [24],16 µg/mL
same,MIC,Klebsiella pneumoniae [25],0.125 µg/mL
same,MIC,Klebsiella pneumoniae [26],64 µg/mL
same,MIC,Pseudomonas aeruginosa [27],1 µg/mL
same,MIC,Enterobacter cloacae [28],1 µg/mL
same,MIC,Escherichia coli [29],32 µg/mL
same,MIC,Pseudomonas aeruginosa [30],1 µg/mL
same,MIC,Klebsiella pneumoniae [31],2 µg/mL
same,MIC,Pseudomonas aeruginosa [32],2 µg/mL
same,MIC,Acinetobacter baumannii [33],> 64 µg/mL
same,MIC,Escherichia coli [34],4 µg/mL
same,MIC,Enterobacter cloacae [35],64 µg/mL
same,MIC,Klebsiella pneumoniae [36],64 µg/mL
same,MIC,Escherichia coli [37],2 µg/mL
same,MIC,Klebsiella pneumoniae [38],32 µg/mL
same,MIC,Klebsiella aerogenes [39],16 µg/mL
same,MIC,Enterobacter cloacae [40],0.5 µg/mL
same,MIC,Klebsiella pneumoniae [41],4 µg/mL
same,MIC,Klebsiella pneumoniae [42],0.125 µg/mL
same,MIC,Pseudomonas aeruginosa [43],8 µg/mL
same,MIC,Klebsiella pneumoniae [44],1 µg/mL
same,MIC,Klebsiella pneumoniae [45],32 µg/mL
same,MIC,Klebsiella pneumoniae [46],> 64 µg/mL
same,MIC,Acinetobacter baumannii [47],> 64 µg/mL
same,MIC,Escherichia coli [48],8 µg/mL
same,MIC,Pseudomonas aeruginosa [49],0.5 µg/mL
same,MIC,Klebsiella pneumoniae [50],8 µg/mL
same,MIC,Klebsiella aerogenes [51],8 µg/mL
same,MIC,Klebsiella pneumoniae [52],> 64 µg/mL
same,MIC,Pseudomonas aeruginosa [53],32 µg/mL
same,MIC,Enterobacter cloacae [54],0.5 µg/mL
C[C@@H](O)[C@H]1C(=O)N2C(C(=O)O)=C(S[C@@H]3CN[C@H](C(=O)N(C)C)C3)[C@H](C)[C@H]12 [MEROPENEM],MIC,Klebsiella aerogenes [1],0.125 µg/mL
same,MIC,Klebsiella pneumoniae [2],> 64 µg/mL
same,MIC,Escherichia coli [3],< 0.03 µg/mL
same,MIC,Klebsiella pneumoniae [4],< 0.03 µg/mL
same,MIC,Acinetobacter baumannii [5],32 µg/mL
same,MIC,Escherichia coli [6],0.06 µg/mL
same,MIC,Escherichia coli [7],< 0.03 µg/mL
same,MIC,Klebsiella pneumoniae [8],> 64 µg/mL
same,MIC,Escherichia coli [9],< 0.03 µg/mL
same,MIC,Klebsiella pneumoniae [10],0.06 µg/mL
same,MIC,Acinetobacter baumannii [11],32 µg/mL
same,MIC,Enterobacter cloacae [12],< 0.03 µg/mL
same,MIC,Enterobacter cloacae [13],0.25 µg/mL
same,MIC,Klebsiella pneumoniae [14],< 0.03 µg/mL
same,MIC,Klebsiella pneumoniae [15],0.06 µg/mL
same,MIC,Klebsiella pneumoniae [16],32 µg/mL
same,MIC,Escherichia coli [17],< 0.03 µg/mL
same,MIC,Escherichia coli [18],< 0.03 µg/mL
same,MIC,Klebsiella aerogenes [19],0.125 µg/mL
same,MIC,Klebsiella pneumoniae [20],> 64 µg/mL
same,MIC,Acinetobacter baumannii [21],32 µg/mL
same,MIC,Klebsiella pneumoniae [22],< 0.03 µg/mL
same,MIC,Acinetobacter baumannii [23],64 µg/mL
same,MIC,Klebsiella aerogenes [24],0.125 µg/mL
same,MIC,Klebsiella pneumoniae [25],< 0.03 µg/mL
same,MIC,Klebsiella pneumoniae [26],64 µg/mL
same,MIC,Pseudomonas aeruginosa [27],1 µg/mL
same,MIC,Enterobacter cloacae [28],0.06 µg/mL
same,MIC,Escherichia coli [29],< 0.03 µg/mL
same,MIC,Pseudomonas aeruginosa [30],1 µg/mL
same,MIC,Klebsiella pneumoniae [31],< 0.03 µg/mL
same,MIC,Pseudomonas aeruginosa [32],2 µg/mL
same,MIC,Acinetobacter baumannii [33],64 µg/mL
same,MIC,Escherichia coli [34],< 0.03 µg/mL
same,MIC,Enterobacter cloacae [35],0.06 µg/mL
same,MIC,Klebsiella pneumoniae [36],32 µg/mL
same,MIC,Escherichia coli [37],< 0.03 µg/mL
same,MIC,Klebsiella pneumoniae [38],< 0.03 µg/mL
same,MIC,Klebsiella aerogenes [39],0.06 µg/mL
same,MIC,Enterobacter cloacae [40],< 0.03 µg/mL
same,MIC,Klebsiella pneumoniae [41],< 0.03 µg/mL
same,MIC,Klebsiella pneumoniae [42],< 0.03 µg/mL
same,MIC,Pseudomonas aeruginosa [43],0.25 µg/mL
same,MIC,Klebsiella pneumoniae [44],< 0.03 µg/mL
same,MIC,Klebsiella pneumoniae [45],> 64 µg/mL
same,MIC,Klebsiella pneumoniae [46],> 64 µg/mL
same,MIC,Acinetobacter baumannii [47],16 µg/mL
same,MIC,Escherichia coli [48],< 0.03 µg/mL
same,MIC,Pseudomonas aeruginosa [49],1 µg/mL
same,MIC,Klebsiella pneumoniae [50],0.06 µg/mL
same,MIC,Klebsiella aerogenes [51],0.125 µg/mL
same,MIC,Klebsiella pneumoniae [52],> 64 µg/mL
same,MIC,Pseudomonas aeruginosa [53],32 µg/mL
same,MIC,Enterobacter cloacae [54],< 0.03 µg/mL
